We go through twelve compounds from patent US20210317490A1, “ANTICANCER COMPOUNDS” (priority 2017, published 2021).

The subject of data set [1] is P-388 murine leukemia cell line. To be noted: cited from earlier work; for IC50 against the P-388 murine leukemia cell line: mycalamides, J. Nat. Prod. 2000, 63, 704.
The conditions of data set [2]: toxicity lower than pederin; cited from earlier work.
The next data set has as its system A549. Description: SRB colorimetric cytotoxicity assay, A549. The class given is cell-based, human. To be noted: A549, 72 hours treatment; for TGI: total cell growth inhibition; for GI50 / CC50: Homo sapiens; for GI50: 50% cell growth inhibition; for CC50: 50% net cell killing, read-out: LC50 (the source's name). The text has this:
(§1) The aim of this assay is to evaluate the in vitro cytostatic (ability to delay or arrest tumor cell growth) or cytotoxic (ability to kill tumor cells) activity of the samples being tested.
(§2) A colorimetric assay, using sulforhodamine B (SRB) reaction has been adapted to provide a quantitative measurement of cell growth and viability (following the technique described by Skehan et al. J. Natl. Cancer Inst. 1990, 82, 1107-1112).
(§3) This form of assay employs 96-well cell culture microplates following the standards of the American National Standards Institute and the Society for Laboratory Automation and Screening (ANSI SLAS 1-2004 (R2012) 10/12/2011). All the cell lines used in this study were obtained from the American Type Culture Collection (ATCC) and derive from different types of human cancer.
(§4) Cells were maintained in Dulbecco's Modified Eagle Medium (DMEM) supplemented with 10% Fetal Bovine Serum (FBS), 2mM L-glutamine, 100 U/mL penicillin and 100 U/mL streptomycin at 37 ° C., 5% CO2 and 98% humidity. For the experiments, cells were harvested from subconfluent cultures using trypsinization and resuspended in fresh medium before counting and plating.
(§5) Cells were seeded in 96 well microtiter plates, at 5000 cells per well in aliquots of 150 μL and allowed to attach to the plate surface for 18 hours (overnight) in drug free medium. After that, one control (untreated) plate of each cell line was fixed (as described below) and used for time zero reference value. Culture plates were then treated with test compounds (50 μL aliquots of 4× stock solutions in complete culture medium plus 4% DMSO) using ten 2/5 serial dilutions (concentrations ranging from 10 to 0.003 μg/mL) and triplicate cultures (1% final concentration in DMSO). After 72 hours treatment, the antitumor effect was measured by using the SRB methodology: Briefly, cells were washed twice with PBS, fixed for 15 min in 1% glutaraldehyde solution at room temperature, rinsed twice in PBS, and stained in 0.4% SRB solution for 30 min at room temperature. Cells were then rinsed several times with 1% acetic acid solution and air-dried at room temperature. SRB was then extracted in 10 mM trizma base solution and the absorbance measured in an automated spectrophotometric plate reader at 490 nm. Effects on cell growth and survival were estimated by applying the NCI algorithm (Boyd M R and Paull K D. Drug Dev. Res. 1995, 34, 91-104).
(§6) The values obtained in triplicate cultures were fitted to a four-parameter logistic curve by nonlinear regression analysis. Three reference parameters were calculated (according to the NCI algorithm) by automatic interpolation of the curves obtained from such fitting: GI50=compound concentration that produces 50% cell growth inhibition, as compared to control cultures; TGI=total cell growth inhibition (cytostatic effect), as compared to control cultures, and LC50=compound concentration that produces 50% net cell killing cytotoxic effect).

The next data set deals with PSN-1. Description: SRB colorimetric cytotoxicity assay, PSN1. To be noted: for GI50 / CC50: Homo sapiens, PSN1, PSN-1, 72 hours treatment; for GI50: 50% cell growth inhibition; for CC50: 50% net cell killing, read-out: LC50 (the source's name); for TGI: PSN-1, 72 hours treatment, total cell growth inhibition. The class given is cell-based, human.
From the text: as §1, §2, §3, §4, §5, §6

For a further data set, the system named is MDA-MB-231. Description: SRB colorimetric cytotoxicity assay, MDA-MB-231. It counts as cell-based, human. The conditions noted are these: MDA-MB-231, 72 hours treatment; for GI50 / LC50 (concentration giving 50% net cell killing): Homo sapiens; for GI50: 50% cell growth inhibition; for TGI: total cell growth inhibition.
From the text: as §1, §2, §3, §4, §5, §6

Another data set relates to HT29. Put plainly: SRB colorimetric cytotoxicity assay, HT29. It counts as cell-based, human. The conditions noted are these: for TGI: HT29, 72 hours treatment, total cell growth inhibition; for GI50 / CC50: Homo sapiens, HT-29, HT29, 72 hours treatment; for GI50: 50% cell growth inhibition; for CC50: 50% net cell killing, read-out: LC50 (the source's name).
From the text: as §1, §2, §3, §4, §5, §6

The subject of data set [3] is EUE, E6D, HeLa, KB, Hep, AS, MEF, CE, BHK, Z1 and M1 cell lines. The conditions noted are these: within four days, in all the cell lines analyzed; cited from earlier work.
A further data set deals with B104 cells. To be noted: cited from earlier work.
Another data set has as its system HeLa cells. The conditions noted are these: cited from earlier work.

The structures appear in SMILES notation. Converted amounts (≈) assume the structure as drawn.

On to `C=C1C[C@](OC)([C@H](O)C(=O)N[C@H]2OCO[C@H]3[C@@H]2O[C@H](CC(CO)OC)C(C)(C)[C@@H]3OC)O[C@H](C)[C@@H]1C` (stereo partly shown) [Mycalamide B], for which the “IC50 against the P-388 murine leukemia cell line” value in data set [1] was 0.7 ng/mL (≈ 1.35 nM).
Turning to `C=C1C[C@](OC)([C@H](O)C(=O)N[C@H]2OCO[C@H]3[C@@H]2O[C@H](C[C@H](O)CCC/C=C/C=C/C=C/C(=O)N[C@@H](CCCNC(=N)N)C(=O)O)C(C)(C)[C@@H]3OC)O[C@H](C)[C@@H]1C` [Onnamide A], the “IC50 against the murine P388 cell line” value in data set [1] (U.S. Pat. No. 4,801,606) is 1 ng/mL (≈ 1.26 nM).
For the compound `C=C1C[C@](OC)([C@H](O)C(=O)NC[C@@H]2C[C@H](O)C(C)(C)[C@@H](C[C@H](O)CCC/C=C/C=C/C=C/C(=O)N[C@@H](CCCNC(=N)N)C(=O)O)O2)O[C@H](C)[C@@H]1C` [Onnamide E], the “cytotoxic activity against the P388 cell line” value in data set [1] (at a concentration of 0.4 μg/mL) is reported as “did not show cytotoxic activity”.
In the case of `C=C1C[C@](OC)([C@H](O)C(=O)NC[C@H]2O[C@H](CO)C(C)(C)[C@H](O)[C@H]2O)O[C@H](C)[C@@H]1C` [Mycalamide C], the “IC50 against the P-388 murine leukemia cell line” value in [1] is on record as 95.0 ng/mL (≈ 228 nM).
For the compound `C=C1C[C@](O)([C@H](O)C(=O)N[C@@H](OC)[C@@H]2C[C@@H](O)C(C)(C)[C@@H](C[C@@H](COC)OC)O2)O[C@H](C)[C@@H]1C` [Pseudopederin, pseudopederin], in data set [2], the “active dose relative to pederin” value is recorded as 10 times higher.
Turning to `C=C1C[C@](OC)([C@H](O)C(=O)N[C@H]2OCO[C@H]3[C@@H]2O[C@H](C[C@H](O)CO)C(C)(C)[C@@H]3OC)O[C@H](C)[C@@H]1C` [Mycalamide A], the “IC50 against the P-388 murine leukemia cell line” value in data set [1] is given as 3.0 ng/mL (≈ 5.96 nM).
On to `C=C1C[C@](OC)([C@H](O)C(=O)N[C@H]2OCO[C@H]3[C@@H]2O[C@H](C[C@H](O)CO)C(C)(C)[C@@H]3O)O[C@H](C)[C@@H]1C` [Mycalamide D], for which, in data set [1], the “IC50 against the P-388 murine leukemia cell line” value is 35 ng/mL (≈ 71.5 nM).
The term TGI denotes the concentration at which net growth stops. Read a low TGI as greater sensitivity of the cells. In general, GI50 refers to the concentration that inhibits growth by half. Lower therefore signals more potent growth inhibition. As for `C=C1CC(OC)(C(O)C(=O)NC(OC)C2CC(O)C(C)(C)C(CC(CO)OC)O2)OC(C)C1C` (stereo not shown) [Compound 1], the TGI in the data set with A549 worked out at 7.97 nM; with PSN-1, 5.72 nM; with MDA-MB-231, 5.31 nM; with HT29, 8.99 nM. The GI50 with A549 was 2.04 nM; with PSN-1, 2.66 nM; with MDA-MB-231, 2.66 nM; in the data set with HT29 it was 2.86 nM. Also, the CC50 in the data set on A549 is 36.8 nM; with PSN-1, 19.4 nM; with HT29, over 204 nM. In the data set with MDA-MB-231, this compound came in with an LC50 (concentration giving 50% net cell killing) of 10.8 nM.
For `C=C1C[C@](OC)([C@H](O)C(=O)N[C@@H](OC)[C@@H]2C[C@@H](O)C(C)(C)[C@@H](CC(COC)OC)O2)O[C@H](C)[C@@H]1C` (stereo partly shown) [pederin], in data set [3], the “concentration sufficient to cause cellular death” value is recorded as about 3 nM.
One may read the IC50 as the concentration that gives 50% inhibition. For `C=C1C[C@](OC)([C@H](O)C(=O)N[C@@H](O)[C@@H]2C[C@@H](O)C(C)(C)[C@@H](C[C@H](O)CO)O2)O[C@H](C)[C@@H]1C` [diaphorin], the IC50 in the data set on B104 cells is about 1000 nM; with HeLa cells, about 2000 nM.
With `C=C1CC(OC)(C(O)C(=O)NC(OC)C2CC(O)C(C)(C)C(CC(O)CO)O2)OC(C)C1C` (stereo not shown) [Compound 2], in the data set with A549, the TGI was found to be 25.2 nM, the GI50 was determined as 7.15 nM and the CC50 is 122 nM. For the same compound, in the data set with PSN-1, growth was halved (GI50) at 8.62 nM, the CC50 came out at 77.8 nM and the TGI was determined as 19.1 nM. In addition, in the data set with MDA-MB-231, the GI50 was found to be 8.2 nM, the LC50 (concentration giving 50% net cell killing) turned out to be 31.5 nM and the TGI amounted to 15.6 nM. For the same compound, in the data set with HT29, the TGI is 44.2 nM, halving of growth (GI50) required 8.83 nM and the CC50 was over 2100 nM.
`C=C1CC(OC)(C(OC(C)=O)C(=O)NC(OC)C2CC(OC(C)=O)C(C)(C)C(CC(COC(C)=O)OC)O2)OC(C)C1C` (stereo not shown) [Compound 3]: in the data set with A549, the TGI is 877 nM, the GI50 is 115 nM and the CC50 was determined as 8610 nM. Moreover, in the data set with PSN-1, the GI50 is 162 nM, the CC50 worked out at 3900 nM and the TGI worked out at 666 nM. Further, in the data set with MDA-MB-231, halving of growth (GI50) required 309 nM, the LC50 (concentration giving 50% net cell killing) was over 16200 nM and the TGI was 2440 nM. Moreover, in the data set on HT29, the TGI is 926 nM, the GI50 turned out to be 162 nM and the CC50 is over 16200 nM.
